# Laboratory results published in the kinase profiling compilation of Christmann-Franck et al. (2016).
# What was measured:
# Test in all cases: KINOMEscan competition binding
# Details in all cases: compound 10.0 µM
# [1] = target: ABL2 (human) (UniProt P42684)
# [2] = target: ACVR2A (human) (UniProt P27037)
# [3] = target: ALK (human) (UniProt Q9UM73)
# [4] = target: CAMKK1 (human) (UniProt Q8N5S9)
# [5] = target: CDK17 (human) (UniProt Q00537)
# [6] = target: CDK18 (human) (UniProt Q07002)
# [7] = target: CLK3 (human) (UniProt P49761)
# [8] = target: CSF1R (human) (UniProt P07333)
# [9] = test system: EGFR (human), P00533 [L858R]
# [10] = target: EPHA2 (human) (UniProt P29317)
# [11] = target: EPHA6 (human) (UniProt Q9UF33)
# [12] = target: ERBB2 (human) (UniProt P04626)
# [13] = target: ERN1 (human) (UniProt O75460)
# [14] = target: FES (human) (UniProt P07332)
# [15] = target: LRRK2 (human) (UniProt Q5S007)
# [16] = target: MAP2K1 (human) (UniProt Q02750)
# [17] = target: MAP2K4 (human) (UniProt P45985)
# [18] = target: MAP3K11 (human) (UniProt Q16584)
# [19] = target: MAP3K3 (human) (UniProt Q99759)
# [20] = target: MAP3K6 (human) (UniProt O95382)
# [21] = target: MELK (human) (UniProt Q14680)
# MELK (human), sequence (Q14680 whole entry, looked up): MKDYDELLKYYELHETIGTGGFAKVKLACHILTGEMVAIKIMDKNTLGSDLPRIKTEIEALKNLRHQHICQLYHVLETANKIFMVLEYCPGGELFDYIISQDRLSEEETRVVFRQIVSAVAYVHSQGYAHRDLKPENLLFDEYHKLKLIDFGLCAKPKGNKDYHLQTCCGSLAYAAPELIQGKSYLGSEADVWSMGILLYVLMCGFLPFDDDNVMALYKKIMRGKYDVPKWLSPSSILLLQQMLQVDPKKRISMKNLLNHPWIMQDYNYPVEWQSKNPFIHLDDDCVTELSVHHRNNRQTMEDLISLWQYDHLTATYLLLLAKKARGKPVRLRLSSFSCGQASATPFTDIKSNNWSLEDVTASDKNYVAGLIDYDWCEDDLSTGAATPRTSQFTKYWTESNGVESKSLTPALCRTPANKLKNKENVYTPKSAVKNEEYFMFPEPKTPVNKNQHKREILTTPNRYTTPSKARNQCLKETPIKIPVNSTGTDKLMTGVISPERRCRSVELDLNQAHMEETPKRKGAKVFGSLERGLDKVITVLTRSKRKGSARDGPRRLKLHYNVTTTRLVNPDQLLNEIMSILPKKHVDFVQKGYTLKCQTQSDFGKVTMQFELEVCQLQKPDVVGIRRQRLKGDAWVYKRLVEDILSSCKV
# [22] = target: MST4 (human) (UniProt Q9P289)
# MST4 (human), sequence (Q9P289 whole entry, looked up): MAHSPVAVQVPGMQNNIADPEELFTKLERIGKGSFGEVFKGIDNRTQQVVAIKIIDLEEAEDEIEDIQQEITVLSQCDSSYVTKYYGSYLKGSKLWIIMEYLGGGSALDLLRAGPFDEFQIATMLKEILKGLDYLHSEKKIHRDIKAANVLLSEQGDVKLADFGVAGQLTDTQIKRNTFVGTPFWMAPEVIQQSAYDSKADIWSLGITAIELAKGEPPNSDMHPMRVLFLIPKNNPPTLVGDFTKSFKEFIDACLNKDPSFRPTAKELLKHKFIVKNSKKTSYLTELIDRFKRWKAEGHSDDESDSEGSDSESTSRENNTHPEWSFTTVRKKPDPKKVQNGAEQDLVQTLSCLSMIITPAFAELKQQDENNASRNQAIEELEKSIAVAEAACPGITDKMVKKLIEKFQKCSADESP
# [23] = target: MYLK3 (human) (UniProt Q32MK0)
# [24] = target: NEK6 (human) (UniProt Q9HC98)
# [25] = target: NTRK1 (human) (UniProt P04629)
# [26] = target: NTRK2 (human) (UniProt Q16620)
# [27] = target: NUAK1 (human) (UniProt O60285)
# [28] = target: NUAK2 (human) (UniProt Q9H093)
# [29] = target: PKMYT1 (human) (UniProt Q99640)
# [30] = target: PKN3 (M.tuberculosis) (UniProt Q6P5Z2)
# [31] = target: PRKCI (human) (UniProt P41743)
# [32] = target: PTK6 (human) (UniProt Q13882)
# PTK6 (human), sequence (Q13882 whole entry, looked up): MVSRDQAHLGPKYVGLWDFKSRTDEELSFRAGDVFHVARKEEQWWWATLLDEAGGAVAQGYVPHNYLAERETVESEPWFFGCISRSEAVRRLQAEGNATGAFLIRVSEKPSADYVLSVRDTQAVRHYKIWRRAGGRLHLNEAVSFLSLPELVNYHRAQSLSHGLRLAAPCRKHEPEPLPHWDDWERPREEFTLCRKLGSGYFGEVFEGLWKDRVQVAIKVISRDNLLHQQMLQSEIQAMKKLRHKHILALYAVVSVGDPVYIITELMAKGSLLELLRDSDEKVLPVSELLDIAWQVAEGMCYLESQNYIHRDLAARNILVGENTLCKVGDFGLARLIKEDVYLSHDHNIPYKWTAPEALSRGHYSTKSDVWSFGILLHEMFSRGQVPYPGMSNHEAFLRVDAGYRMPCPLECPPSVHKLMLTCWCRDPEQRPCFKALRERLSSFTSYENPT
# [33] = target: RPS6KA1 KD1 (human) (UniProt Q15418)
# [34] = target: RPS6KA4 KD1 (human) (UniProt O75676)
# [35] = target: STK10 (human) (UniProt O94804)
# [36] = target: TGFBR2 (human) (UniProt P37173)
# [37] = target: TNIK (human) (UniProt Q9UKE5)
# [38] = target: TYK2 JH1 catalytic (human) (UniProt P29597)
# [39] = target: WEE1 (human) (UniProt P30291)
# WEE1 (human), sequence (P30291 whole entry, looked up): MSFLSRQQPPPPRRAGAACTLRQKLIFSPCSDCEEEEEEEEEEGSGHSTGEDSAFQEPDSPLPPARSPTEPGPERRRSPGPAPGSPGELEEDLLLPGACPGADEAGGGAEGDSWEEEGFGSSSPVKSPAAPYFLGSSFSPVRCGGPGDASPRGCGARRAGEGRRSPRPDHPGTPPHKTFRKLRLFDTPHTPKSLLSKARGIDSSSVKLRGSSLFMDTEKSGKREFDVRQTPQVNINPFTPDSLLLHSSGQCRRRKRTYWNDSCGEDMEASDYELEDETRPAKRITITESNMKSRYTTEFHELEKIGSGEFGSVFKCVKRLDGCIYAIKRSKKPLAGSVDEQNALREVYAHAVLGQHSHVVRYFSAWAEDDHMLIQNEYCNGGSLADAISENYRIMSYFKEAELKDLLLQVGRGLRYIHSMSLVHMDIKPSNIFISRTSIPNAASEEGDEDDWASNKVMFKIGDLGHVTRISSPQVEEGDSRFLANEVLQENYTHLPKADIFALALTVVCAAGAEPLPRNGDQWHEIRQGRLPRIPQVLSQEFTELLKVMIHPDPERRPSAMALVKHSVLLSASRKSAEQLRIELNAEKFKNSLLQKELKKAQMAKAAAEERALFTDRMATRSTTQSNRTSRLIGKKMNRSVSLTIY
# [40] = target: YES1 (human) (UniProt P07947)
# CDK17 (human), sequence (Q00537 whole entry, looked up): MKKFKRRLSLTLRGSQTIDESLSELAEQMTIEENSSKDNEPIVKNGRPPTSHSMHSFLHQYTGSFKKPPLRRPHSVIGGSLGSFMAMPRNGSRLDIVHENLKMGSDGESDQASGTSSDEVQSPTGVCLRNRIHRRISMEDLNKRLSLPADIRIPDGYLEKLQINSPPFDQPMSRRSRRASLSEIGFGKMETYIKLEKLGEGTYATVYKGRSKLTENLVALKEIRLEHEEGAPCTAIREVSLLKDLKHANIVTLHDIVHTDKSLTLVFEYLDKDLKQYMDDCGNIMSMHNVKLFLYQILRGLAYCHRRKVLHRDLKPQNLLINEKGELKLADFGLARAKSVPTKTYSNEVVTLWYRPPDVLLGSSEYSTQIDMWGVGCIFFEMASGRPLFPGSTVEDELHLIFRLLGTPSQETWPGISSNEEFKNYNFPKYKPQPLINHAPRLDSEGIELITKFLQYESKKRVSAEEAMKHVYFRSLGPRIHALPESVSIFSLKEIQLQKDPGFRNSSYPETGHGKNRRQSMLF
# CDK18 (human), sequence (Q07002 whole entry, looked up): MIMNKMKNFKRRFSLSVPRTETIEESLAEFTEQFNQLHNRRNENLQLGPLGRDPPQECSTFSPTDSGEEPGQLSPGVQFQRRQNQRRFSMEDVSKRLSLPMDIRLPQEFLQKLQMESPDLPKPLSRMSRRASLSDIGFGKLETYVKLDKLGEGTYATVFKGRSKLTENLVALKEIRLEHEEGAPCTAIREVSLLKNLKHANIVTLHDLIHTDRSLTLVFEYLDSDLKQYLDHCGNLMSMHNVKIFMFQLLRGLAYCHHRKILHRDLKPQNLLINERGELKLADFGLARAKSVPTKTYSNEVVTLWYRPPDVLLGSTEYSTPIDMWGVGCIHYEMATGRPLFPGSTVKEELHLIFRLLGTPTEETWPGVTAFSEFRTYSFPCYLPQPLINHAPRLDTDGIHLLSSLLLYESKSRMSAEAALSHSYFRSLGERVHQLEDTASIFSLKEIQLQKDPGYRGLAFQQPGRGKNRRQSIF
# ALK (human), sequence (Q9UM73 whole entry, looked up): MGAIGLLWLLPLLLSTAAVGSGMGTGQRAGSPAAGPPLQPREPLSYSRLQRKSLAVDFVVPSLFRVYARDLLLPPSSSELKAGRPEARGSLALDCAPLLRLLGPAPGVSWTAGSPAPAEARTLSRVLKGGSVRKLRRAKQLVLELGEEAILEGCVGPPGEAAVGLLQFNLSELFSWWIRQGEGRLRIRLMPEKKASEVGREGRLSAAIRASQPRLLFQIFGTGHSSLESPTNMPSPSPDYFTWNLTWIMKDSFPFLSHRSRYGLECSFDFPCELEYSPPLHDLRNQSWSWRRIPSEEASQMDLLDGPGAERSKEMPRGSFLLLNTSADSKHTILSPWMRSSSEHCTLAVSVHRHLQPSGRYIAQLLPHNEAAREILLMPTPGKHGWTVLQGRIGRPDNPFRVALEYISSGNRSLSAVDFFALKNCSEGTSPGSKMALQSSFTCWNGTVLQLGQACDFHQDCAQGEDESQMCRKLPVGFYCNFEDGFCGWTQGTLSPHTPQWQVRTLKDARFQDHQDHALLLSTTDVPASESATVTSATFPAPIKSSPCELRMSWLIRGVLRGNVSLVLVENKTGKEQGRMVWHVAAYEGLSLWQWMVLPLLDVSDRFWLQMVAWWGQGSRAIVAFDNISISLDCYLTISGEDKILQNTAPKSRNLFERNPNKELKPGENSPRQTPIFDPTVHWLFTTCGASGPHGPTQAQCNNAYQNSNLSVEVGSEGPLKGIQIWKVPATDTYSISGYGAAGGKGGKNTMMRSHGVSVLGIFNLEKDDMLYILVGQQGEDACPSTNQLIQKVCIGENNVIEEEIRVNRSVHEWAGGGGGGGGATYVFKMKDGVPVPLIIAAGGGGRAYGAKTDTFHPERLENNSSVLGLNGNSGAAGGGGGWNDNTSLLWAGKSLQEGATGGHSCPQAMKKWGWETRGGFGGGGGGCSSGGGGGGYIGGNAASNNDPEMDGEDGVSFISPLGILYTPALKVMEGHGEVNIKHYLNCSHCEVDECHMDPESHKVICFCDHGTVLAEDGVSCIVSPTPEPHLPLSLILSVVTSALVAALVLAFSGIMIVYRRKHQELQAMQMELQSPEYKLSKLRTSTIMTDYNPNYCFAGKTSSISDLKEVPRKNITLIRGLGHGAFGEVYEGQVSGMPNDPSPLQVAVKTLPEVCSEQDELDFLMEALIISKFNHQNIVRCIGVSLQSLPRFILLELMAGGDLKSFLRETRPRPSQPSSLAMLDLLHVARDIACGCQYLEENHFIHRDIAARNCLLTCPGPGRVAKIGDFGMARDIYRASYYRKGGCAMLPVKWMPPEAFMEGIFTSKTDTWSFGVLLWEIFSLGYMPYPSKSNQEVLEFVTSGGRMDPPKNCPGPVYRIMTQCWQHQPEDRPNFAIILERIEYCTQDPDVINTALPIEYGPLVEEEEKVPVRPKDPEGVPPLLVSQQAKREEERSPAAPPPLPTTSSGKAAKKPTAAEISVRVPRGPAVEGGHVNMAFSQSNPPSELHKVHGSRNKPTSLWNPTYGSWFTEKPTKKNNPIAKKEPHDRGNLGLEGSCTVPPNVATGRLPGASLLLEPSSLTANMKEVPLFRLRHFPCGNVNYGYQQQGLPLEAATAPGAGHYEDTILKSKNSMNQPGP
Compound,"kinase still bound, per cent of control [1]","kinase still bound, per cent of control [2]","kinase still bound, per cent of control [3]","kinase still bound, per cent of control [4]","kinase still bound, per cent of control [5]","kinase still bound, per cent of control [6]","kinase still bound, per cent of control [7]","kinase still bound, per cent of control [8]","kinase still bound, per cent of control [9]","kinase still bound, per cent of control [10]","kinase still bound, per cent of control [11]","kinase still bound, per cent of control [12]","kinase still bound, per cent of control [13]","kinase still bound, per cent of control [14]","kinase still bound, per cent of control [15]","kinase still bound, per cent of control [16]","kinase still bound, per cent of control [17]","kinase still bound, per cent of control [18]","kinase still bound, per cent of control [19]","kinase still bound, per cent of control [20]",other results
CC1=C(C(=O)Nc2cc3cn[nH]c3cc2F)C(c2ccc(C(F)(F)F)cc2)CC(=O)N1 (stereo not given),86%,88%,77%,72%,91%,100%,65%,68%,90%,84%,95%,71%,71%,95%,100%,73%,71%,100%,82%,80%,"kinase still bound, per cent of control [21]: 99%; kinase still bound, per cent of control [22]: 24%; kinase still bound, per cent of control [23]: 92%; kinase still bound, per cent of control [24]: 70%; kinase still bound, per cent of control [25]: 91%; kinase still bound, per cent of control [26]: 76%; kinase still bound, per cent of control [27]: 28%; kinase still bound, per cent of control [28]: 6%; kinase still bound, per cent of control [29]: 100%; kinase still bound, per cent of control [30]: 92%; kinase still bound, per cent of control [31]: 72%; kinase still bound, per cent of control [32]: 60%; kinase still bound, per cent of control [33]: 72%; kinase still bound, per cent of control [34]: 98%; kinase still bound, per cent of control [35]: 100%; kinase still bound, per cent of control [36]: 85%; kinase still bound, per cent of control [37]: 100%; kinase still bound, per cent of control [38]: 20%; kinase still bound, per cent of control [39]: 94%; kinase still bound, per cent of control [40]: 65%"
CCN1CCN(Cc2ccc(NC(=O)c3ccc(C)c(/C=C/c4cnc5[nH]ccc5c4OC)c3)cc2C(F)(F)F)CC1,0%,100%,51%,100%,61%,100%,100%,0%,0.1%,1.7%,0%,0%,72%,0.2%,12%,74%,76%,3.6%,1.4%,64%,"kinase still bound, per cent of control [21]: 20%; kinase still bound, per cent of control [22]: 18%; kinase still bound, per cent of control [23]: 100%; kinase still bound, per cent of control [24]: 100%; kinase still bound, per cent of control [25]: 2.5%; kinase still bound, per cent of control [26]: 5.2%; kinase still bound, per cent of control [27]: 100%; kinase still bound, per cent of control [28]: 95%; kinase still bound, per cent of control [29]: 71%; kinase still bound, per cent of control [30]: 89%; kinase still bound, per cent of control [31]: 100%; kinase still bound, per cent of control [32]: 9.6%; kinase still bound, per cent of control [33]: 31%; kinase still bound, per cent of control [34]: 50%; kinase still bound, per cent of control [35]: 0%; kinase still bound, per cent of control [36]: 5.7%; kinase still bound, per cent of control [37]: 3.2%; kinase still bound, per cent of control [38]: 12%; kinase still bound, per cent of control [39]: 100%; kinase still bound, per cent of control [40]: 0.65%"
CNC(=O)Nc1ccc(-c2nc(N3CC4CCC(C3)O4)c3cnn(C4CCC5(CC4)OCCO5)c3n2)cc1,84%,78%,42%,100%,100%,92%,31%,100%,53%,81%,98%,88%,93%,100%,82%,100%,90%,100%,100%,80%,"kinase still bound, per cent of control [21]: 92%; kinase still bound, per cent of control [22]: 70%; kinase still bound, per cent of control [23]: 100%; kinase still bound, per cent of control [24]: 90%; kinase still bound, per cent of control [25]: 100%; kinase still bound, per cent of control [26]: 100%; kinase still bound, per cent of control [27]: 82%; kinase still bound, per cent of control [28]: 100%; kinase still bound, per cent of control [29]: 75%; kinase still bound, per cent of control [30]: 94%; kinase still bound, per cent of control [31]: 67%; kinase still bound, per cent of control [32]: 55%; kinase still bound, per cent of control [33]: 100%; kinase still bound, per cent of control [34]: 90%; kinase still bound, per cent of control [35]: 99%; kinase still bound, per cent of control [36]: 100%; kinase still bound, per cent of control [37]: 100%; kinase still bound, per cent of control [38]: 100%; kinase still bound, per cent of control [39]: 79%; kinase still bound, per cent of control [40]: 97%"
